Reference: patent US8962856B2, “Modulators of cystic fibrosis transmembrane conductance regulator” (Vertex Pharmaceuticals Incorporated, priority 2005, dated 2015)

Biological target: T1, ΔF508-CFTR (Homo sapiens, UniProt P13569, DEL508-508)
T1 construct: expressed in transfected cells
Experiment: Membrane potential optical assay for ΔF508-CFTR correction
Type: cell-based
Details: for % Efficacy / Emax: relative efficacy
Source text: Assays for Detecting and Measuring ΔF508-CFTR Correction Properties of Compounds
I) Membrane Potential Optical Methods for Assaying ΔF508-CFTR Modulation Properties of Compounds
The optical membrane potential assay utilized voltage-sensitive FRET sensors described by Gonzalez and Tsien (See Gonzalez, J. E. and R. Y. Tsien (1995) “Voltage sensing by fluorescence resonance energy transfer in single cells” Biophys J 69(4): 1272-80, and Gonzalez, J. E. and R. Y. Tsien (1997) “Improved indicators of cell membrane potential that use fluorescence resonance energy transfer” Chem Biol 4(4): 269-77) in combination with instrumentation for measuring fluorescence changes such as the Voltage/Ion Probe Reader (VIPR) (See, Gonzalez, J. E., K. Oades, et al. (1999) “Cell-based assays and instrumentation for screening ion-channel targets” Drug Discov Today 4(9): 431-439).
These voltage sensitive assays are based on the change in fluorescence resonant energy transfer (FRET) between the membrane-soluble, voltage-sensitive dye, DiSBAC2(3), and a fluorescent phospholipid, CC2-DMPE, which is attached to the outer leaflet of the plasma membrane and acts as a FRET donor. Changes in membrane potential (Vm) cause the negatively charged DiSBAC2(3) to redistribute across the plasma membrane and the amount of energy transfer from CC2-DMPE changes accordingly. The changes in fluorescence emission were monitored using VIPR™ II, which is an integrated liquid handler and fluorescent detector designed to conduct cell-based screens in 96- or 384-well microtiter plates.
NIH3T3 mouse fibroblasts stably expressing ΔF508-CFTR are used for optical measurements of membrane potential. The cells are maintained at 37° C. in 5% CO2 and 90% humidity in Dulbecco's modified Eagle's medium supplemented with 2 mM glutamine, 10% fetal bovine serum, 1×NEAA, β-ME, 1× pen/strep, and 25 mM HEPES in 175 cm^2 culture flasks. For all optical assays, the cells were seeded at 30,000/well in 384-well matrigel-coated plates and cultured for 2 hrs at 37° C. before culturing at 27° C. for 24 hrs. for the potentiator assay. For the correction assays, the cells are cultured at 27° C. or 37° C. with and without compounds for 16-24 hoursB) Electrophysiological Assays for assaying ΔF508-CFTR modulation properties of compounds

T1 sequence (P13569 with tags, fused parts or gaps DEL508-508): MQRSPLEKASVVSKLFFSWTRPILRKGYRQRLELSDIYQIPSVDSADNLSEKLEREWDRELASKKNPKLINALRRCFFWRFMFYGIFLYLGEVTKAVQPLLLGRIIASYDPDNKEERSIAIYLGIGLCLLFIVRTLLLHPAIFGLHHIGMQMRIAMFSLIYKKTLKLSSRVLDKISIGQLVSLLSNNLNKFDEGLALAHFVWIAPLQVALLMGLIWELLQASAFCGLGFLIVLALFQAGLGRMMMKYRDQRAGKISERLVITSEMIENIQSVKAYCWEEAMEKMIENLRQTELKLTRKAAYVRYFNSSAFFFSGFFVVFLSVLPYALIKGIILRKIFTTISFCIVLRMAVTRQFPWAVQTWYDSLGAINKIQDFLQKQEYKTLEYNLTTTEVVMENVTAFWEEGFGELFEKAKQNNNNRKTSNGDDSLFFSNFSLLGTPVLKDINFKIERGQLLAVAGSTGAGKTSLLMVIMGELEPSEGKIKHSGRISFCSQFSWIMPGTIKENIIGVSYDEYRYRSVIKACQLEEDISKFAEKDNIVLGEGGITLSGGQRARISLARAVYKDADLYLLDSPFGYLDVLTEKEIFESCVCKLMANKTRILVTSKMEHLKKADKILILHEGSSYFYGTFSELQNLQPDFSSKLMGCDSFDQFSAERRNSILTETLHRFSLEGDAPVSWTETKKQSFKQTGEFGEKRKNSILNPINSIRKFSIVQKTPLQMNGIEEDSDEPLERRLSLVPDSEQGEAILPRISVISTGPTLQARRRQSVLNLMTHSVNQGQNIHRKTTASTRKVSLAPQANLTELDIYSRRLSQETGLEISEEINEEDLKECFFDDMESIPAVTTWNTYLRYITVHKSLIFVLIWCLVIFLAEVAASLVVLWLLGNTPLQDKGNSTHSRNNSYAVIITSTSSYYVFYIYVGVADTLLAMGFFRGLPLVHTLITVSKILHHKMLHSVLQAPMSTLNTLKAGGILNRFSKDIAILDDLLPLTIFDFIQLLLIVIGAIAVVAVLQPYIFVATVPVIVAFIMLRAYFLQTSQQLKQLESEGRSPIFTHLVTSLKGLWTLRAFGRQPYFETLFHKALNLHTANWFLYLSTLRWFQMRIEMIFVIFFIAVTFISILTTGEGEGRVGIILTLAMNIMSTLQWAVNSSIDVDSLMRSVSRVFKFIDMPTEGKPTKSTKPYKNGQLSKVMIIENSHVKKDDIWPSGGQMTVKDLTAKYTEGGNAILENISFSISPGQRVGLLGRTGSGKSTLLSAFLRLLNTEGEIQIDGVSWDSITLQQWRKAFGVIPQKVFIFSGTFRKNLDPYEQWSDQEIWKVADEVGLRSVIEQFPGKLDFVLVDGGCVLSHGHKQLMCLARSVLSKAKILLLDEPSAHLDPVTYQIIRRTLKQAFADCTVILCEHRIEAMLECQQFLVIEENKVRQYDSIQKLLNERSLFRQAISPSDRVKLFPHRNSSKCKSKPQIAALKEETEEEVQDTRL

| Compound | EC50 | % Efficacy | Emax |
| --- | --- | --- | --- |
| 1-(Benzo[d][1,3]dioxol-6-yl)-N-(5-((R)-(2-chlorophenyl)((R)-3-hydroxypyrrolidin-1-yl)methyl)thiazol-2-yl)cyclopropanecarboxamide [Compound 2] | 2000 to 20000 nM | +++ (“+++” means >100%) | – |
| Cc1nc(NC(=O)C2(c3ccc4c(c3)OCO4)CC2)sc1[C@H](c1ccccc1Cl)N1CC[C@H](O)C1 [Compound 8] | < 2000 nM | – | > 100% |
| Cc1nc(NC(=O)C2(c3ccc4c(c3)OC(F)(F)O4)CC2)sc1[C@@H](c1ccccc1Cl)N1CC[C@H](O)C1 [Compound 9] | < 2000 nM | – | > 100% |
| Cc1nc(NC(=O)C2(c3ccc4c(c3)OC(F)(F)O4)CC2)sc1[C@H](c1ccccc1Cl)N1CC[C@H](O)C1 [Compound 10] | < 2000 nM | – | > 100% |
| O=C(Nc1ncc(C(c2ccccc2Cl)N2CC[C@@H](O)C2)s1)C1(c2ccc3c(c2)OC(F)(F)O3)CC1 (some centres unmarked) [Compound 11] | – | – | > 100% |
| O=C(Nc1ncc([C@H](c2ccccc2Cl)N2CC[C@@H](O)C2)s1)C1(c2ccc3c(c2)OC(F)(F)O3)CC1 [Compound 11] | < 2000 nM | – | – |
| O=C(Nc1ncc([C@H](c2ccccc2Cl)N2CC[C@@H](O)C2)s1)C1(c2ccc3c(c2)OCO3)CC1 [Compound 12] | < 2000 nM | – | 25 to 100% |
| O=C(Nc1ncc([C@@H](c2ccccc2Cl)N2CC[C@@H](O)C2)s1)C1(c2ccc3c(c2)OCO3)CC1 [Compound 13] | < 2000 nM | – | > 100% |

Other lines, results leading:

| EC50 | % Efficacy | Emax | Compound |
| --- | --- | --- | --- |
| < 2000 nM | +++ (“+++” means >100%) | – | 1-(Benzo[d][1,3]dioxol-6-yl)-N-(5-((S)-(2-chlorophenyl)((R)-3-hydroxypyrrolidin-1-yl)methyl)thiazol-2-yl)cyclopropanecarboxamide [Compound 1] |
| < 2000 nM | – | > 100% | O=C(Nc1ncc([C@H](c2ccc(Cl)cc2F)N2CC[C@@H](O)C2)s1)C1(c2ccc3c(c2)OCO3)CC1 [Compound 3] |
| < 2000 nM | – | > 100% | O=C(Nc1ncc([C@H](c2ccc(Cl)cc2F)N2CC[C@@H](O)C2)s1)C1(c2ccc3c(c2)OC(F)(F)O3)CC1 [Compound 4] |
| < 2000 nM | – | > 100% | O=C(Nc1ncc([C@H](c2ccc(Cl)c(Cl)c2)N2CC[C@@H](O)C2)s1)C1(c2ccc3c(c2)OCO3)CC1 [Compound 5] |
| < 2000 nM | – | > 100% | O=C(Nc1ncc([C@@H](c2ccc(Cl)c(Cl)c2)N2CC[C@@H](O)C2)s1)C1(c2ccc3c(c2)OCO3)CC1 [Compound 6] |
| < 2000 nM | – | > 100% | Cc1nc(NC(=O)C2(c3ccc4c(c3)OCO4)CC2)sc1[C@@H](c1ccccc1Cl)N1CC[C@H](O)C1 [Compound 7] |
